# System: TRIM24-MET-i cells
# Conditions: GSEA, v. DMSO
# Experimental: The number of unique and shared differentially expressed genes between each comparison are shown in parentheses. A linear regression line is depicted along with Pearson’s correlation coefficient (r) and its associated p-value. […] Common negatively enriched genesets between all three comparisons are in bold. c, Heatmaps showing expression of Hallmark_Myc_Target_v1/2 genes for indicated cells and treatment comparisons (TRIM-MET cells were treated in vitro, TFG-MET cells in vivo). Select leading edge genes from GSEA are labeled.
structure (smiles),measurement,value
C[C@@H](Oc1cc(-c2cnn(C3CCNCC3)c2)cnc1N)c1c(Cl)ccc(F)c1Cl [Crizotinib],ES GOCC_MITOCHONDRIAL_ENVELOPE,-0.5203
same,ES GOCC_ORGANELLE_INNER_MEMBRANE,-0.5635
same,ES GOCC_PRERIBOSOME,-0.8837
same,ES GOCC_RIBONUCLEOPROTEIN_COMPLEX,-0.6028
same,ES GOCC_RIBOSOME,-0.6378
same,ES GOMF_STRUCTURAL_CONSTITUENT_OF_RIBOSOME,-0.6065
same,ES HALLMARK_ADIPOGENESIS,-0.3925
same,ES HALLMARK_ALLOGRAFT_REJECTION,-0.3891
same,ES HALLMARK_ANDROGEN_RESPONSE,-0.4501
same,ES HALLMARK_ANGIOGENESIS,-0.5001
same,ES HALLMARK_APICAL_JUNCTION,-0.2207
same,ES HALLMARK_APICAL_SURFACE,0.438
same,ES HALLMARK_APOPTOSIS,-0.353
same,ES HALLMARK_CHOLESTEROL_HOMEOSTASIS,-0.4271
same,ES HALLMARK_COAGULATION,-0.3066
same,ES HALLMARK_COMPLEMENT,-0.2741
same,ES HALLMARK_DNA_REPAIR,-0.3968
same,ES HALLMARK_E2F_TARGETS,-0.4061
same,ES HALLMARK_EPITHELIAL_MESENCHYMAL_TRANSITION,-0.2384
same,ES HALLMARK_ESTROGEN_RESPONSE_EARLY,-0.4462
same,ES HALLMARK_ESTROGEN_RESPONSE_LATE,-0.2995
same,ES HALLMARK_G2M_CHECKPOINT,-0.4157
same,ES HALLMARK_GLYCOLYSIS,-0.4578
same,ES HALLMARK_HEDGEHOG_SIGNALING,-0.4357
same,ES HALLMARK_HYPOXIA,-0.2949
same,ES HALLMARK_IL2_STAT5_SIGNALING,-0.5104
same,ES HALLMARK_IL6_JAK_STAT3_SIGNALING,-0.3352
same,ES HALLMARK_INFLAMMATORY_RESPONSE,-0.4227
same,ES HALLMARK_INTERFERON_ALPHA_RESPONSE,0.333
same,ES HALLMARK_INTERFERON_GAMMA_RESPONSE,-0.2664
same,ES HALLMARK_KRAS_SIGNALING_DN,0.421
same,ES HALLMARK_KRAS_SIGNALING_UP,-0.3522
same,ES HALLMARK_MITOTIC_SPINDLE,0.3203
same,ES HALLMARK_MTORC1_SIGNALING,-0.615
same,ES HALLMARK_MYC_TARGETS_V1,-0.7224
same,ES HALLMARK_MYC_TARGETS_V2,-0.8712
same,ES HALLMARK_MYOGENESIS,0.2133
same,ES HALLMARK_NOTCH_SIGNALING,-0.3408
same,ES HALLMARK_OXIDATIVE_PHOSPHORYLATION,-0.5351
same,ES HALLMARK_P53_PATHWAY,-0.3345
same,ES HALLMARK_PANCREAS_BETA_CELLS,0.2531
same,ES HALLMARK_PEROXISOME,-0.2701
same,ES HALLMARK_PI3K_AKT_MTOR_SIGNALING,-0.3822
same,ES HALLMARK_PROTEIN_SECRETION,-0.253
same,ES HALLMARK_TGF_BETA_SIGNALING,-0.4216
same,ES HALLMARK_TNFA_SIGNALING_VIA_NFKB,-0.4566
same,ES HALLMARK_UNFOLDED_PROTEIN_RESPONSE,-0.6894
same,ES HALLMARK_UV_RESPONSE_DN,0.2824
same,ES HALLMARK_UV_RESPONSE_UP,-0.4491
same,ES HALLMARK_WNT_BETA_CATENIN_SIGNALING,-0.3428
same,ES KRIGE_RESPONSE_TO_TOSEDOSTAT_6HR_DN,-0.7282
same,ES KRIGE_RESPONSE_TO_TOSEDOSTAT_24HR_DN,-0.7493
same,ES LEE_BMP2_TARGETS_DN,-0.726
same,ES PUJANA_CHEK2_PCC_NETWORK,-0.6234
same,ES WEI_MYCN_TARGETS_WITH_E_BOX,-0.7486
same,NES GOBP_NCRNA_PROCESSING,-2.807
same,NES GOBP_RIBONUCLEOPROTEIN_COMPLEX_BIOGENESIS,-2.6966
same,NES GOBP_RIBOSOME_BIOGENESIS,-2.885
same,NES GOCC_MITOCHONDRIAL_ENVELOPE,-1.997
same,NES GOCC_ORGANELLE_INNER_MEMBRANE,-2.127
same,NES GOCC_PRERIBOSOME,-2.754
same,NES GOCC_RIBONUCLEOPROTEIN_COMPLEX,-2.312
same,NES GOCC_RIBOSOME,-2.274
same,NES GOMF_STRUCTURAL_CONSTITUENT_OF_RIBOSOME,-2.105
same,NES HALLMARK_ADIPOGENESIS,-1.373
same,NES HALLMARK_ALLOGRAFT_REJECTION,-1.343
same,NES HALLMARK_ANDROGEN_RESPONSE,-1.464
same,NES HALLMARK_ANGIOGENESIS,-1.355
same,NES HALLMARK_APICAL_JUNCTION,-0.7717
same,NES HALLMARK_APICAL_SURFACE,1.391
same,NES HALLMARK_APOPTOSIS,-1.211
same,NES HALLMARK_CHOLESTEROL_HOMEOSTASIS,-1.341
same,NES HALLMARK_COMPLEMENT,-0.9577
same,NES HALLMARK_DNA_REPAIR,-1.352
same,NES HALLMARK_E2F_TARGETS,-1.43
same,NES HALLMARK_EPITHELIAL_MESENCHYMAL_TRANSITION,-0.8343
same,NES HALLMARK_ESTROGEN_RESPONSE_EARLY,-1.563
same,NES HALLMARK_ESTROGEN_RESPONSE_LATE,-1.046
same,NES HALLMARK_G2M_CHECKPOINT,-1.457
same,NES HALLMARK_GLYCOLYSIS,-1.603
same,NES HALLMARK_HEDGEHOG_SIGNALING,-1.2
same,NES HALLMARK_HYPOXIA,-1.03
same,NES HALLMARK_IL2_STAT5_SIGNALING,-1.788
same,NES HALLMARK_IL6_JAK_STAT3_SIGNALING,-1.065
same,NES HALLMARK_INFLAMMATORY_RESPONSE,-1.474
same,NES HALLMARK_INTERFERON_ALPHA_RESPONSE,1.217
same,NES HALLMARK_INTERFERON_GAMMA_RESPONSE,-0.9329
same,NES HALLMARK_KRAS_SIGNALING_DN,1.674
same,NES HALLMARK_KRAS_SIGNALING_UP,-1.231
same,NES HALLMARK_MITOTIC_SPINDLE,1.318
same,NES HALLMARK_MTORC1_SIGNALING,-2.165
same,NES HALLMARK_MYC_TARGETS_V1,-2.537
same,NES HALLMARK_MYC_TARGETS_V2,-2.6498
same,NES HALLMARK_MYOGENESIS,0.8749
same,NES HALLMARK_NOTCH_SIGNALING,-0.9083
same,NES HALLMARK_OXIDATIVE_PHOSPHORYLATION,-1.871
same,NES HALLMARK_P53_PATHWAY,-1.1707
same,NES HALLMARK_PANCREAS_BETA_CELLS,0.7398
same,NES HALLMARK_PEROXISOME,-0.8785
same,NES HALLMARK_PI3K_AKT_MTOR_SIGNALING,-1.243
same,NES HALLMARK_PROTEIN_SECRETION,-0.8206
same,NES HALLMARK_TGF_BETA_SIGNALING,-1.271
same,NES HALLMARK_TNFA_SIGNALING_VIA_NFKB,-1.6076
same,NES HALLMARK_UNFOLDED_PROTEIN_RESPONSE,-2.272
same,NES HALLMARK_UV_RESPONSE_DN,1.115
same,NES HALLMARK_UV_RESPONSE_UP,-1.536
same,NES HALLMARK_WNT_BETA_CATENIN_SIGNALING,-0.9746
same,NES KRIGE_RESPONSE_TO_TOSEDOSTAT_6HR_DN,-2.811
same,NES KRIGE_RESPONSE_TO_TOSEDOSTAT_24HR_DN,-2.908
same,NES LEE_BMP2_TARGETS_DN,-2.799
same,NES PUJANA_CHEK2_PCC_NETWORK,-2.394
same,NES WEI_MYCN_TARGETS_WITH_E_BOX,-2.882

# Reference: article PMC11157767 (Molecular Cancer, 2024)
